Patent US20100292137A1, “Antibiotics and Methods For Producing Them” (priority 2006, published 2010)
Like-named read-outs stand apart in the source and are kept apart here.

Assays:
M. tuberculosis [1] = type: cell-based, Mycobacterium tuberculosis
M. tuberculosis [2] = details: tlyA mutants 315-A, C-202 and C-211; cited from earlier work
[3] = test system: M. tuberculosis rrl mutant C-401; type: cell-based, Mycobacterium tuberculosis

| Compound | susceptibility (M. tuberculosis [1]) | susceptibility (M. tuberculosis [2]) | effect on growth rate [3] |
| --- | --- | --- | --- |
| NCC[C@H](O)C(=O)N[C@@H]1C[C@H](N)[C@@H](O[C@H]2O[C@H](CN)[C@@H](O)[C@H](O)[C@H]2O)[C@H](O)[C@H]1O[C@H]1O[C@H](CO)[C@@H](O)[C@H](N)[C@H]1O [amikacin] | susceptible | susceptible | – |
| capreomycin | – | – | do not noticeably slow the growth rate |
